Laboratory results published in ChEMBL document CHEMBL1268903, “Biologically active biotin derivatives of schweinfurthin F” (Bioorg Med Chem Lett, 2010).

How the values were obtained:
SF-295 = assay: Cytotoxicity against human SF295 cells; format: functional, cell-based
A549 = assay: Cytotoxicity against human A549 cells; format: functional, cell-based
[1] = Cytotoxicity against human NCI60 cells; format: functional

Row | Compound | EC50 (SF-295) [nM] | EC50 (A549) [nM] | GI50 [1] [nM]
1 | COCOc1cc(/C=C/c2cc3c(c(OC)c2)O[C@]2(C)CC[C@@H](O)C(C)(C)[C@H]2C3)cc(OC)c1C/C=C(\C)C/C=C/C(C)COC(=O)CCCC[C@H]1SC[C@H]2NC(=O)N[C@H]21 (stereo partly drawn) | 2700 | > 10000 | –
2 | COCOc1cc(/C=C/c2cc3c(c(OC)c2)O[C@]2(C)CC[C@@H](O)C(C)(C)[C@H]2C3)cc(OC)c1C/C=C(\C)C/C=C/C(C)CNC(=O)CCCC[C@H]1SC[C@H]2NC(=O)N[C@H]21 (stereo partly drawn) | 1100 | 5000 | –
3 | COc1cc(/C=C/c2cc(O)c(C/C=C(\C)CCC=C(C)C)c(O)c2)cc2c1O[C@]1(C)CC[C@@H](O)C(C)(C)[C@H]1C2 [3-DEOXYSCHWEINFURTHIN B] | – | 4900 | 1000
4 | CC(C)=CCC/C(C)=C/Cc1c(O)cc(/C=C/c2cc(O)c3c(c2)C[C@@H]2C(C)(C)[C@H](O)[C@H](O)C[C@@]2(C)O3)cc1O [SCHWEINFURTHIN A] | – | – | 1000
5 | COc1cc(/C=C/c2cc(O)c(CC=C(C)C)c(O)c2)cc2c1O[C@]1(C)CC[C@@H](O)C(C)(C)[C@H]1C2 [SCHWEINFURTHIN F] | – | – | 1000
